Assay results published in patent US20150250166A1, “NOOTKATONE AS AN INSECTICIDE AND INSECT REPELLENT” (ALLYLIX, INC., priority 2012, published 2015).

System: adult bed bugs (Cimex lectularius)
Test: Bed bug repellency, treated versus untreated filter paper halves in Petri dish chamber
Type: in vivo
Conditions: for Repellency (%) Treatment Group / bed bugs on Nootkatone treatment filter paper (count, of 50) / Repellency (summary of bedbug repellency): 0.1% BHT; for Corrected 0.25% nootkatone repellency / bed bugs on 0.25% Nootkatone-treated filter paper, average count (of 10) / Corrected 1% nootkatone repellency / bed bugs on 1% Nootkatone-treated filter paper, average count (of 10): 0.1% BHT in ethanol, dried paper; for Nootkatone Repellency / bed bugs on nootkatone-treated filter paper (count, of 50): 5% Nootkatone in acetone, 0.1% BHT (title; column head prints 10%); for Nootkatone Repellency (corrected for isopropanol control) / bed bugs on 10% Nootkatone-treated filter paper, average count of five trials (of 10): 10% nootkatone, 0.1% BHT in isopropanol
Protocol: A formulation, containing 10% nootkatone, 0.1% butylated hydroxytoluene (BHT) in isopropanol was tested for efficacy for repelling adult bed bugs (Cimex lectularius). Treatment chambers were created by cutting a circular hole in the bottom of 15-cm Petri dishes. A fine mesh nylon cloth was then glued to Petri dishes, covering the holes. The chambers were formed using the inverted Petri dishes with the screened bottoms serving as the tops and the lids forming the base of the chambers. The lids were secured with rubber bands.
Five semi-circular pieces of filter paper, with a diameter of 15 cm, were arranged so that they were evenly spaced on a sheet of aluminum foil. Equal amounts of 10% nootkatone solution, stored at ambient temperature and humidity, were applied to the filter papers until they were wet to the point of runoff. Five untreated semi-circular pieces were marked with the letter “c”, for control, on both sides in pencil or solvent resistant ink. One nootkatone-treated filter paper and one untreated filter paper were placed with the flat sides against each other, creating a full circle, in the lids of five 15-cm Petri dishes, serving as the treatment chambers described above, such that the entire surface of the lid was covered. Immediately after placing the filter paper semi-circles into the lid, 10 bed bugs, having received a blood meal no more than 7 days before, were placed onto the untreated piece of paper and covered with the ventilated base of the Petri dish. The containers of each replicate were then kept at ambient laboratory temperature and humidity for the duration of the study. The distribution of the bed bugs on the treated and untreated filter papers was recorded at 0.5, 1, 1.5, 2, and 24 hours after being placed in the containers. Observations were made in darkness with the aid of a red lens flashlight. Gloves and a dust mask were worn by the observer to reduce detection of the bed bugs and to minimize disturbance caused by the observer. Five additional treatment chambers were created as described above, except the treated filter paper was soaked with isopropyl alcohol (control treatment), instead of the 10% nootkatone solution. Bed bug distribution in the control chambers were recorded as described for the treatment condition.
The nootkatone treatment repellency was calculated from the following equation: R=[(C−T)/C]*100, where R is the % repellency, C is the fraction of bed bugs on the isopropanol-treated filter papers, and T is the fraction of bed bugs on the nootkatone-treated filter papers.
A formulation, containing 5% nootkatone, 0.1% butylated hydroxytoluene (BHT) in acetone was tested for efficacy for repelling adult bed bugs (Cimex lectularius) using the methods as described above.
The duration of 1% and 0.25% nootkatone […] repellent effects was evaluated in this example. Bed bug (Cimex lectularius) treatment chambers were created as described in part A above, except using 9-cm Petri dishes and semicircles of filter paper with a diameter of 9 cm. Five replicate semicircles of filter paper were treated with 1 ml 1.0% nootkatone, 0.1% BHT in ethanol; 0.25% nootkatone, 0.1% BHT in ethanol; or ethanol alone (control), and placed side by side with untreated filter papers (marked with a “c”) in Petri dishes so that the lid surfaces were completely covered as previously described in part A. Prior to addition of the bed bugs, the filter papers were confirmed to be completely dry and free of any residual ethanol odor.
Following chamber preparation, 10 bed bugs, having received a blood meal no more than 7 days prior, were added to each chamber on the untreated filter paper as described above. Distribution of the 10 bed bugs per chamber was recorded at 0.5, 1, 1.5, 2, and 24 hours following treatment (Day 1). At the end of 24 hours, the old bed bugs were removed from the Petri dish and 10 new bed bugs were added. […]

[1] = 0.01% nootkatone in acetone, Day 1, 0.5 hour
[2] = 0.01% nootkatone in acetone, Day 1, 1.5 hour
[3] = 0.01% nootkatone in acetone, Day 1, 2.0 hour
[4] = 0.01% nootkatone in acetone, Day 1, Average of time points
[5] = 0.01% nootkatone in acetone, Day 2, 0.5 hour
[6] = 0.01% nootkatone in acetone, Day 2, 1.0 hour
[7] = 0.01% nootkatone in acetone, Day 2, 1.5 hour
[8] = 0.01% nootkatone in acetone, Day 2, 2.0 hour
[9] = 0.01% nootkatone in acetone, Day 2, 24.0 hour
[10] = 0.01% nootkatone in acetone, Day 2, Average of time points
[11] = 0.10% nootkatone in acetone, Day 1, 1.0 hour
[12] = 0.10% nootkatone in acetone, Day 1, 1.5 hour
[13] = 0.10% nootkatone in acetone, Day 1, 24.0 hour
[14] = 0.10% nootkatone in acetone, Day 1, Average of time points
[15] = 0.10% nootkatone in acetone, Day 2, 0.5 hour
[16] = 0.10% nootkatone in acetone, Day 2, 1.0 hour
[17] = 0.10% nootkatone in acetone, Day 2, 1.5 hour
[18] = 0.10% nootkatone in acetone, Day 2, 2.0 hour
[19] = 0.10% nootkatone in acetone, Day 2, 24.0 hour
[20] = 0.10% nootkatone in acetone, Day 2, Average of time points
[21] = 0.50% nootkatone in acetone, Day 1, 1.0 hour
[22] = 0.50% nootkatone in acetone, Day 1, 1.5 hour
[23] = 0.50% nootkatone in acetone, Day 1, 2.0 hour
[24] = 0.50% nootkatone in acetone, Day 1, 24.0 hour
[25] = 0.50% nootkatone in acetone, Day 2, 0.5 hour
[26] = 0.50% nootkatone in acetone, Day 2, 1.5 hour
[27] = 0.50% nootkatone in acetone, Day 2, 2.0 hour
[28] = 0.50% nootkatone in acetone, Day 2, 24.0 hour

C=C(C)[C@@H]1CCC2=CC(=O)C[C@@H](C)[C@]2(C)C1 [nootkatone, 4,4a,5,6,7,8-hexahydro-6-isopropenyl-4,4a-dimethyl-2(3H)-naphtalenone]
Repellency (%) Treatment Group [1]: 68.0% | bed bugs on Nootkatone treatment filter paper (count, of 50) [1]: 16 | bed bugs on Nootkatone treatment filter paper (count, of 50) (0.01% nootkatone in acetone, Day 1, 1.0 hour): 17 | Repellency (%) Treatment Group [2]: 66.0% | bed bugs on Nootkatone treatment filter paper (count, of 50) [2]: 17 | Repellency (%) Treatment Group [3]: 72.0% | bed bugs on Nootkatone treatment filter paper (count, of 50) [3]: 14 | Repellency (%) Treatment Group (0.01% nootkatone in acetone, Day 1, 24.0 hour): 58.0% | Repellency (%) Treatment Group [4]: 66.0% | bed bugs on Nootkatone treatment filter paper (count, of 50) [4]: 17.0 | Repellency (%) Treatment Group [5]: 82.0% | bed bugs on Nootkatone treatment filter paper (count, of 50) [5]: 9 | Repellency (%) Treatment Group [6]: 72.0% | bed bugs on Nootkatone treatment filter paper (count, of 50) [6]: 14 | Repellency (%) Treatment Group [7]: 62.0% | bed bugs on Nootkatone treatment filter paper (count, of 50) [7]: 19 | Repellency (%) Treatment Group [8]: 64.0% | bed bugs on Nootkatone treatment filter paper (count, of 50) [8]: 18 | Repellency (%) Treatment Group [9]: 62.0% | bed bugs on Nootkatone treatment filter paper (count, of 50) [9]: 19 | Repellency (%) Treatment Group [10]: 68.4% | bed bugs on Nootkatone treatment filter paper (count, of 50) [10]: 15.8 | bed bugs on Nootkatone treatment filter paper (count, of 50) (0.10% nootkatone in acetone, Day 1, 0.5 hour): 3 | Repellency (%) Treatment Group [11]: 92.0% | bed bugs on Nootkatone treatment filter paper (count, of 50) [11]: 4 | Repellency (%) Treatment Group [12]: 90.0% | bed bugs on Nootkatone treatment filter paper (count, of 50) [12]: 5 | bed bugs on Nootkatone treatment filter paper (count, of 50) (0.10% nootkatone in acetone, Day 1, 2.0 hour): 3 | Repellency (%) Treatment Group [13]: 98.0% | bed bugs on Nootkatone treatment filter paper (count, of 50) [13]: 1 | Repellency (%) Treatment Group [14]: 93.6% | bed bugs on Nootkatone treatment filter paper (count, of 50) [14]: 3.2 | Repellency (%) Treatment Group [15]: 72.0% | bed bugs on Nootkatone treatment filter paper (count, of 50) [15]: 14 | Repellency (%) Treatment Group [16]: 70.0% | bed bugs on Nootkatone treatment filter paper (count, of 50) [16]: 15 | Repellency (%) Treatment Group [17]: 74.0% | bed bugs on Nootkatone treatment filter paper (count, of 50) [17]: 13 | Repellency (%) Treatment Group [18]: 70.0% | bed bugs on Nootkatone treatment filter paper (count, of 50) [18]: 15 | Repellency (%) Treatment Group [19]: 82.0% | bed bugs on Nootkatone treatment filter paper (count, of 50) [19]: 9 | Repellency (%) Treatment Group [20]: 73.6% | bed bugs on Nootkatone treatment filter paper (count, of 50) [20]: 13.2 | bedbug repellency, in words (0.1% nootkatone in acetone, day two): moderate (statistically significant) repellent | bedbug repellency, in words (0.25% nootkatone in ethanol): not sufficient to repel bed bugs | Corrected 0.25% nootkatone repellency (Day 1): 19% | bed bugs on 0.25% Nootkatone-treated filter paper, average count (of 10) (Day 1): 2.68 | Corrected 0.25% nootkatone repellency (Day 2): 23% | bed bugs on 0.25% Nootkatone-treated filter paper, average count (of 10) (Day 2): 4.2 | Corrected 0.25% nootkatone repellency (Day 3): 49% | bed bugs on 0.25% Nootkatone-treated filter paper, average count (of 10) (Day 3): 2.32 | Corrected 0.25% nootkatone repellency (Day 4): −14% | bed bugs on 0.25% Nootkatone-treated filter paper, average count (of 10) (Day 4): 4 | Repellency (%) Treatment Group [21]: 100.0% | bed bugs on Nootkatone treatment filter paper (count, of 50) [21]: 0 | Repellency (%) Treatment Group [22]: 100.0% | bed bugs on Nootkatone treatment filter paper (count, of 50) [22]: 0 | Repellency (%) Treatment Group [23]: 100.0% | bed bugs on Nootkatone treatment filter paper (count, of 50) [23]: 0 | Repellency (%) Treatment Group [24]: 100.0% | bed bugs on Nootkatone treatment filter paper (count, of 50) [24]: 0 | Repellency (%) Treatment Group (0.50% nootkatone in acetone, Day 1, Average of time points): 100.0% | Repellency (%) Treatment Group [25]: 86.0% | bed bugs on Nootkatone treatment filter paper (count, of 50) [25]: 7 | bed bugs on Nootkatone treatment filter paper (count, of 50) (0.50% nootkatone in acetone, Day 2, 1.0 hour): 6 | Repellency (%) Treatment Group [26]: 94.0% | bed bugs on Nootkatone treatment filter paper (count, of 50) [26]: 3 | Repellency (%) Treatment Group [27]: 98.0% | bed bugs on Nootkatone treatment filter paper (count, of 50) [27]: 1 | Repellency (%) Treatment Group [28]: 92.0% | bed bugs on Nootkatone treatment filter paper (count, of 50) [28]: 4 | Repellency (%) Treatment Group (0.50% nootkatone in acetone, Day 2, Average of time points): 91.6% | duration of bed bug repellency following treatment (1% nootkatone in ethanol on filter paper): about 4 days | Corrected 1% nootkatone repellency (Day 1): 93% | bed bugs on 1% Nootkatone-treated filter paper, average count (of 10) (Day 1): 0.24 | Corrected 1% nootkatone repellency (Day 2): 66% | bed bugs on 1% Nootkatone-treated filter paper, average count (of 10) (Day 2): 1.84 | Corrected 1% nootkatone repellency (Day 3): 81% | bed bugs on 1% Nootkatone-treated filter paper, average count (of 10) (Day 3): 0.88 | Corrected 1% nootkatone repellency (Day 4): 84% | bed bugs on 1% Nootkatone-treated filter paper, average count (of 10) (Day 4): 0.56 | Corrected 1% nootkatone repellency (Day 5): 68% | bed bugs on 1% Nootkatone-treated filter paper, average count (of 10) (Day 5): 1.52 | Corrected 1% nootkatone repellency (Day 6): 20% | bed bugs on 1% Nootkatone-treated filter paper, average count (of 10) (Day 6): 2.24 | Corrected 1% nootkatone repellency (Day 7): 63% | bed bugs on 1% Nootkatone-treated filter paper, average count (of 10) (Day 7): 1.84 | Nootkatone Repellency (0.5 hr): 100.0% | bed bugs on nootkatone-treated filter paper (count, of 50) (0.5 hr): 0 | Nootkatone Repellency (1 hr): 100.0% | bed bugs on nootkatone-treated filter paper (count, of 50) (1 hr): 0 | Nootkatone Repellency (1.5 hr): 100.0% | bed bugs on nootkatone-treated filter paper (count, of 50) (1.5 hr): 0 | Nootkatone Repellency (2 hr): 100.0% | bed bugs on nootkatone-treated filter paper (count, of 50) (2 hr): 0 | Nootkatone Repellency (24 hr): 100.0% | bed bugs on nootkatone-treated filter paper (count, of 50) (24 hr): 0 | Nootkatone Repellency (Averages of time points): 100.0% | bed bugs on nootkatone-treated filter paper (count, of 50) (Averages of time points): 0 | bed bug repellency compared with acetone alone, in words (5% nootkatone in acetone): repels bed bugs to a greater extent than that observed for acetone alone | bed bug repellency compared with isopropanol alone, in words (10% nootkatone in isopropyl alcohol): repels bed bugs to a greater extent than that observed for isopropanol alone | Nootkatone Repellency (corrected for isopropanol control) (0.5 hr): 85.7% | bed bugs on 10% Nootkatone-treated filter paper, average count of five trials (of 10) (0.5 hr): 0.4 | Nootkatone Repellency (corrected for isopropanol control) (1 hr): 100.0% | bed bugs on 10% Nootkatone-treated filter paper, average count of five trials (of 10) (1 hr): 0 | Nootkatone Repellency (corrected for isopropanol control) (1.5 hr): 100.0% | bed bugs on 10% Nootkatone-treated filter paper, average count of five trials (of 10) (1.5 hr): 0 | Nootkatone Repellency (corrected for isopropanol control) (2 hr): 100.0% | bed bugs on 10% Nootkatone-treated filter paper, average count of five trials (of 10) (2 hr): 0 | Nootkatone Repellency (corrected for isopropanol control) (24 hr): 100.0% | bed bugs on 10% Nootkatone-treated filter paper, average count of five trials (of 10) (24 hr): 0 | Repellency (summary of bedbug repellency) (Nootkatone 0.010% in acetone, Day 2): 68.0% | Repellency (summary of bedbug repellency) (Nootkatone 0.10% in acetone, Day 2): 73.6% | Repellency (summary of bedbug repellency) (Nootkatone 0.50% in acetone, Day 1): 100.0% | Repellency (summary of bedbug repellency) (Nootkatone 0.50% in acetone, Day 2): 91.6%
